# Values joined by “and” are separate entries in the source; they are usually repeats but may differ in a detail not shown here. Identical values can stand only once.
# Tests used:
# human osteoclasts [1] = experiment: osteoclast activity assay (bone resorption on bovine bone slices, CTX/TRACP 5b); type: cell-based; conditions: for concentration of CTX released from bone collagen into the culture medium: resorption phase days 7-10
# Protocol: The objective of this study is to investigate the effects of selected test compounds selected on resorbing activity of human osteoclasts in vitro. Bone resorption is studied using a model where human osteoclast precursor cells derived from bone marrow are cultured for 7 days on bovine bone slices and allowed to differentiate into bone-resorbing osteoclasts. At day 7, the culture medium is changed, the test compounds are added, and the formed mature osteoclasts are allowed to resorb bone in an additional 3-day culture period. Tartrate-resistant acid phosphatase isoform 5b activity (TRACP 5b) is measured from the culture medium collected at day 7 as an index of the number of osteoclasts formed in each well during the differentiation period. After the totally 10 days culture period, C-terminal cross-linked telopeptides of type I collagen (CTX) are quantitated from the culture medium as an index of bone resorption. The results are expressed as the resorption index (CTX at day 10/TRACP 5b at day 7), which describes the mean activity of a single osteoclast. In each test, a baseline group without test compounds is included to obtain a baseline value. […] The test system can also be modified by adding the test compounds at the beginning of the culture period to study if the test compounds affect osteoclast differentiation. Osteoprotegerin is used as a reference inhibitor of osteoclast differentiation in such cultures.
# Used herein is a method where osteoclast precursor cells derived from human bone marrow are cultured on bovine bone slices. The cells are first allowed to differentiate into mature bone-resorbing osteoclasts, and the formed osteoclasts are then allowed to resorb bone. The system is ideally suitable for determining the effects of test compounds on bone resorption in vitro. Test compounds are added into the cell cultures after the differentiation period, and their effect on the resorbing activity of mature osteoclasts is determined.
# (§1) The bone resorption assay is performed according to the above described Standard Operation Procedure. Shortly, human bone marrow-derived stem cells are suspended to culture medium and allowed to attach to bovine bone slices. The bone slices are transferred into 96-well tissue culture plates containing culture medium with appropriate amounts of important growth factors favoring osteoclast differentiation, including M-CSF, RANK-ligand and TGF-beta. The cells are incubated in a CO2 incubator in humidified atmosphere of 95% air and 5% carbon dioxide at 37° C. At day 7 when osteoclast differentiation is completed, the culture medium is replaced with culture medium containing conditions favoring osteoclast activity, and the test compounds are added. The cell culture is continued for an additional three days, during which the formed mature osteoclasts are allowed to resorb bone in the presence of vehicle, control inhibitor (E64) or test compounds at different concentrations. Tartrate-resistant acid phosphatase isoform 5b activity (TRACP 5b) is measured from the culture medium collected at day 7 using the BoneTRAP® assay (SBA-Sciences, Oulu, Finland). Medium TRACP 5b activity describes the number of osteoclasts formed in each well during the differentiation period. At the end of the culture period, C-terminal cross-linked telopeptides of type I collagen (CTX) released from the bone slices are quantitated as an index of bone resorption using CrossLaps® for culture assay (Nordic Bioscience, Herlev, Denmark). The results are expressed as the resorption index (CTX at day 10/TRACP 5b at day 7), which describes the mean activity of a single osteoclast. When necessary, the ToxiLight® assay (Cambrex, East Rutherford, N.J., USA) is used to detect cytotoxic effects of test compounds.
# Two separate experiments were performed in this study, an osteoclast differentiation assay and an osteoclast activity assay.
# human osteoclasts [2] = experiment: cytotoxicity in human osteoclast activity assay (luminescence released from dying cells); conditions: day 10; for Cytotoxicity, % compared with baseline group: baseline mean = 100%
# Protocol: as §1
# Two separate experiments were performed in this study, an osteoclast differentiation assay and an osteoclast activity assay. In the osteoclast differentiation assay, osteoclast precursor cells were cultured for 7 days in the presence of the test compound, and TRACP 5b released into the culture medium was determined at day 7 as an index of the number of osteoclasts formed. Cytotoxicity was determined by quantitating the amount of dying cells from the culture medium at day 2. In the osteoclast activity assay, the test compounds were added after osteoclast differentiation was completed at day 7, and the mature osteoclasts were cultured for an additional 3 days, allowing them to resorb bone. […] Medium CTX was measured at day 10 to quantitate bone resorption during days 7-10, and the results are expressed as the resorption index CTX at day 10/TRACP 5b at day 7, which describes the mean resorbing activity of a single osteoclast. Cytotoxicity was determined by quantitating the amount of dying cells from the culture medium at day 10.
# The test compounds were added after osteoclast differentiation was completed at day 7, and the mature osteoclasts were cultured for an additional 3 days, allowing them to resorb bone. […] Medium CTX was measured at day 10 to quantitate bone resorption during days 7-10, and the results are expressed as the resorption index CTX at day 10/TRACP 5b at day 7, which describes the mean osteoclast activity. Cytotoxicity was determined by quantitating the amount of dying cells from the culture medium at day 10.
# [3] = tested on: human osteoclast precursor cells derived from bone marrow; experiment: osteoclast differentiation assay (medium TRACP 5b at day 7); type: cell-based
# Protocol: The objective of this study is to investigate the effects of selected test compounds selected on resorbing activity of human osteoclasts in vitro. Bone resorption is studied using a model where human osteoclast precursor cells derived from bone marrow are cultured for 7 days on bovine bone slices and allowed to differentiate into bone-resorbing osteoclasts. […] In each test, a baseline group without test compounds is included to obtain a baseline value. […] The test system can also be modified by adding the test compounds at the beginning of the culture period to study if the test compounds affect osteoclast differentiation. Osteoprotegerin is used as a reference inhibitor of osteoclast differentiation in such cultures.
# Appropriate dilutions were made from the stock solution to obtain the desired test concentrations (0.1 nM, 1 nM and 10 nM in osteoclast differentiation assay and 1 nM, 10 nM and 100 nM in osteoclast activity assay).
# [4] = Homo sapiens, Osteoclast, read-out: Resorbing activity, % of activity compared with baseline group
# [5] = 1.0 μM E64, Mean of 6 replicates
molecule,measurement,setting,value
"C=CC[C@H]1C(=O)C(C)(C)[C@@H](O)CC(=O)O[C@H](c2ccc3sc(C)nc3c2)C[C@@H]2O[C@]2(C)CCC[C@H](C)[C@@H]1O [EPO-477, (1S,3S,7S,10R,11S,12S,16R)-7,11-dihydroxy-3-(2-methyl-benzothiazol-5-yl)-10-(prop-2-en-1-yl)-8,8,12,16-tetramethyl-4,17-dioxabicyclo[14.1.0]heptadecane-5,9-dione]",resorption index CTX at day 10/TRACP 5b at day 7,"human osteoclasts [1]; 1 nM, Mean of 6 replicates",3.31
same,concentration of CTX released from bone collagen into the culture medium,"human osteoclasts [1]; 1 nM, Mean of 6 replicates",60.34 nM
same,concentration of CTX released from bone collagen into the culture medium,"human osteoclasts [1]; 1 nM, single replicate",56.56 nM and 68.03 nM and 54.94 nM and 58.62 nM and 61.84 nM and 62.04 nM
same,resorption index CTX at day 10/TRACP 5b at day 7,"human osteoclasts [1]; 1 nM, single replicate",3.32 and 4.36 and 3.20 and 2.98 and 3.09 and 2.90
same,resorption index CTX at day 10/TRACP 5b at day 7,"human osteoclasts [1]; 10 nM, Mean of 6 replicates",1.14
same,concentration of CTX released from bone collagen into the culture medium,"human osteoclasts [1]; 10 nM, Mean of 6 replicates",20.16 nM
same,concentration of CTX released from bone collagen into the culture medium,"human osteoclasts [1]; 10 nM, single replicate",10.31 nM and 31.82 nM and 15.76 nM and 16.61 nM and 29.41 nM and 17.07 nM
same,resorption index CTX at day 10/TRACP 5b at day 7,"human osteoclasts [1]; 10 nM, single replicate",0.79 and 1.45 and 0.84 and 1.00 and 1.93 and 0.82
same,resorption index CTX at day 10/TRACP 5b at day 7,"human osteoclasts [1]; 100 nM, Mean of 6 replicates",0.78
same,concentration of CTX released from bone collagen into the culture medium,"human osteoclasts [1]; 100 nM, Mean of 6 replicates",13.45 nM
same,concentration of CTX released from bone collagen into the culture medium,"human osteoclasts [1]; 100 nM, single replicate",15.63 nM and 14.51 nM and 11.55 nM and 16.48 nM and 6.70 nM and 15.83 nM
same,resorption index CTX at day 10/TRACP 5b at day 7,"human osteoclasts [1]; 100 nM, single replicate",0.87 and 0.92 and 0.56 and 0.89 and 0.36 and 1.07
same,activity at 0.0025 µM,human osteoclasts [1]; [4],95%
same,activity at 0.005 µM,human osteoclasts [1]; [4],103%
same,activity at 0.0075 µM,human osteoclasts [1]; [4],109%
same,activity at 0.01 µM,human osteoclasts [1]; [4],79%
same,activity at 0.015 µM,human osteoclasts [1]; [4],45%
same,activity at 0.02 µM,human osteoclasts [1]; [4],62%
same,activity at 0.05 µM,human osteoclasts [1]; [4],38%
same,luminescence released from dying cells during the culture period,"human osteoclasts [2]; 1 nM, Mean of 6 replicates",1864
same,luminescence released from dying cells during the culture period,"human osteoclasts [2]; 1 nM, single replicate",2371 and 1802 and 1966 and 1781 and 1685 and 1577
same,"Cytotoxicity, % compared with baseline group",human osteoclasts [2]; 2.5 nM,98%
same,"Cytotoxicity, % compared with baseline group",human osteoclasts [2]; 5 nM,96%
same,"Cytotoxicity, % compared with baseline group",human osteoclasts [2]; 7.5 nM,91%
same,luminescence released from dying cells during the culture period,"human osteoclasts [2]; 10 nM, Mean of 6 replicates",1957
same,"Cytotoxicity, % compared with baseline group",human osteoclasts [2]; 10 nM,96%
same,luminescence released from dying cells during the culture period,"human osteoclasts [2]; 10 nM, single replicate",2193 and 2097 and 2126 and 1815 and 1909 and 1599
same,"Cytotoxicity, % compared with baseline group",human osteoclasts [2]; 15 nM,79%
same,"Cytotoxicity, % compared with baseline group",human osteoclasts [2]; 20 nM,78%
same,"Cytotoxicity, % compared with baseline group",human osteoclasts [2]; 50 nM,85%
same,luminescence released from dying cells during the culture period,"human osteoclasts [2]; 100 nM, Mean of 6 replicates",2666
same,luminescence released from dying cells during the culture period,"human osteoclasts [2]; 100 nM, single replicate",2837 and 2911 and 2428 and 2741 and 2112 and 2964
same,medium TRACP 5b activity at day 7,"[3]; 0.1 nM, Mean of 6 replicates, in U/L",18.24
same,medium TRACP 5b activity at day 7,"[3]; 0.1 nM, single replicate, in U/L",14.72 and 16.43 and 21.41 and 17.57 and 17.37 and 21.95
same,medium TRACP 5b activity at day 7,"[3]; 1 nM, Mean of 6 replicates, in U/L",8.27
same,medium TRACP 5b activity at day 7,"[3]; 1 nM, single replicate",9.20 (2×) and 8.25 and 7.59 and 7.52 and 7.84
same,medium TRACP 5b activity at day 7,"[3]; 10 nM, Mean of 6 replicates, in U/L",2.45
same,medium TRACP 5b activity at day 7,"[3]; 10 nM, single replicate, in U/L",2.88 and 3.02 and 2.34 and 2.15 and 1.93 and 2.41
"CC(C)C[C@H](NC(=O)[C@H]1O[C@@H]1C(=O)O)C(=O)NCCCCN=C(N)N [Compound E64, reference compound]",resorption index CTX at day 10/TRACP 5b at day 7,human osteoclasts [1]; [5],0.45
same,concentration of CTX released from bone collagen into the culture medium,human osteoclasts [1]; [5],8.44 nM
same,concentration of CTX released from bone collagen into the culture medium,"human osteoclasts [1]; 1.0 μM E64, single replicate",9.13 nM and 10.96 nM and 7.91 nM and 7.78 nM and 9.39 nM and 5.45 nM
same,resorption index CTX at day 10/TRACP 5b at day 7,"human osteoclasts [1]; 1.0 μM E64, single replicate",0.41 (2×) and 0.64 and 0.38 and 0.59 and 0.29
same,luminescence released from dying cells during the culture period,human osteoclasts [2]; [5],1594
same,luminescence released from dying cells during the culture period,"human osteoclasts [2]; 1.0 μM E64, single replicate",1979 and 1666 and 1489 and 1568 and 1355 and 1507
"CC(=O)O[C@H]1C(=O)[C@@]2(C)[C@H]([C@H](OC(=O)c3ccccc3)[C@]3(O)C[C@H](OC(=O)[C@H](O)[C@@H](NC(=O)c4ccccc4)c4ccccc4)C(C)=C1C3(C)C)[C@]1(OC(C)=O)CO[C@@H]1C[C@@H]2O [Paclitaxel, paclitaxel, reference compound]",activity at 0.0025 µM,human osteoclasts [1]; [4],109%
same,activity at 0.005 µM,human osteoclasts [1]; [4],98%
same,activity at 0.01 µM,human osteoclasts [1]; [4],87%
same,activity at 0.02 µM,human osteoclasts [1]; [4],95%
same,activity at 0.05 µM,human osteoclasts [1]; [4],64%
same,activity at 0.1 µM,human osteoclasts [1]; [4],57%
same,activity at 0.2 µM,human osteoclasts [1]; [4],72%
same,"Cytotoxicity, % compared with baseline group",human osteoclasts [2]; 2.5 nM,121%
same,"Cytotoxicity, % compared with baseline group",human osteoclasts [2]; 5 nM,99%
same,"Cytotoxicity, % compared with baseline group",human osteoclasts [2]; 10 nM,121%
same,"Cytotoxicity, % compared with baseline group",human osteoclasts [2]; 20 nM,116%
same,"Cytotoxicity, % compared with baseline group",human osteoclasts [2]; 50 nM,131%
same,"Cytotoxicity, % compared with baseline group",human osteoclasts [2]; 100 nM,120%
same,"Cytotoxicity, % compared with baseline group",human osteoclasts [2]; 200 nM,125%
"OPG: Osteoprotegerin, reference inhibitor of osteoclast differentiation (PeproTech 450-14) (protein, UniProt O00300 22-401, looked up) Tumor necrosis factor …: ETFPPKYLHYDEETSHQLLCDKCPPGTYLKQHCTAKWKTVCAPCPDHYYTDSWHTSDECLYCSPVCKELQYVKQECNRTHNRVCECKEGRYLEIEFCLKHRSCPPGFGVVQAGTPERNTVCKRCPDGFFSNETSSKAPCRKHTNCSVFGLLLTQKGNATHDNICSGNSESTQKCGIDVTLCEEAFFRFAVPTKFTPNWLSVLVDNLPGTKVNAESVERIKRQHSSQEQTFQLLKLWKHQNKDQDIVKKIIQDIDLCENSVQRHIGHANLTFEQLRSLMESLPGKKVGAEDIEKTIKACKPSDQILKLLSLWRIKNGDQDTLKGLMHALKHSKTYHFPKTVTQSLKKTIRFLHSFTMYKLYQKLFLEMIGNQVQSVKISCL",medium TRACP 5b activity at day 7,"[3]; 100 ng/ml OPG, Mean of 6 replicates, in U/L",8.59
same,medium TRACP 5b activity at day 7,"[3]; 100 ng/ml OPG, single replicate, in U/L",4.46 and 10.67 and 10.53 and 10.19 and 5.70 and 10.00

# Reference: patent publication US20080146626A1, “USE OF EPOTHILONES IN THE TREATMENT OF OSTEOPOROSIS AND RELATED DISEASES” (priority 2006, published 2008)
